Data published in patent US4261892A, “2,4,6-Tris-(substituted-amino)-s-triazines” (American Cyanamid Company, priority 1979, dated 1981).
Where two headings read alike, the source gives them in different places. Each block holds one compound with its values, some of them ahead of it.

Tested on: Adjuvant Arthritis In Rats
Assay: Adjuvant-induced arthritis in rats (chronic inflammation accompanied by joint destruction)
Assay type: in vivo, Royal Hart, Wistar strain rats
Conditions: for inhibition in vivo at 50 mg/kg / inhibition in vivo at 25 mg/kg / inhibition in vivo at 100 mg/kg / inhibition in vivo at 200 mg/kg / inhibition in vivo at 400 mg/kg: Rattus norvegicus
Protocol: Groups of three Royal Hart, Wistar strain rats weighing 200±10 grams each were injected intradermally in the right hind paw with Freund's adjuvant (dried human tubercle bacilli in a mineral oil vehicle) at a dose of 2 mg./kg. of body weight. […] On the 14th and 21st day post challenge the diameter of the injected paw (primary lesion) was measured by micrometer caliper. The volume of inflamed paws were estimated from these measurements and the results are expressed as percent inhibition of swelling as compared to controls. At the same time, the other inflamed sites, such as ears, paws and tail (secondary lesions) were observed and each rat was graded as to degree of inflammation and swelling present. The grading is based on a scale of 0 to 24 where 0 represents a complete absence of induced arthritic nodules and 24 represents the maximum degree of inflammation. The mean grade for each treated group is calculated and the effects of each compound are expressed as percent inhibition of the control grade.

[1] = 336 h, oral 50 mg./kg. once daily days 0-13, Day 14, read-out: % Inhibition of Swelling (primary lesion) Day 14
[2] = 504 h, oral 50 mg./kg. once daily days 0-13, Day 21, read-out: % Inhibition of Swelling (primary lesion) Day 21
[3] = oral 50 mg./kg. once daily days 0-13, Day 14
[4] = oral 50 mg./kg. once daily days 0-13, Day 21
[5] = oral 50 mg./kg. once daily days 0-13
[6] = po, 336 h, read-out: % Inhibition of Swelling (primary lesion) Day 14
[7] = po, 504 h, read-out: % Inhibition of Swelling (primary lesion) Day 21
[8] = oral 25 mg./kg. once daily days 0-13, Day 14
[9] = oral 25 mg./kg. once daily days 0-13, Day 21
[10] = oral 100 mg./kg. once daily days 0-13, Day 14
[11] = oral 100 mg./kg. once daily days 0-13, Day 21
[12] = oral 100 mg./kg. once daily days 0-13
[13] = oral 200 mg./kg. once daily days 0-13, Day 14
[14] = oral 200 mg./kg. once daily days 0-13, Day 21
[15] = oral 400 mg./kg. once daily days 0-13, Day 14
[16] = oral 400 mg./kg. once daily days 0-13, Day 21

SMILES: CC(C)(C)C(C)(C)Nc1nc(N[C@H]2C[C@@H]3CC[C@H]2C3)nc(NC(C)(C)C(C)(C)C)n1 (relative stereo) [N^2-(exo[2.2.1]norbornyl)-N^4, N^6-bis(1,1,2,2-tetramethylpropyl)melamine]
inhibition in vivo at 50 mg/kg [1]: 49%
inhibition in vivo at 50 mg/kg [2]: 24%
Mean Weight Gain (grams) Day 14 [3]: 97 grams
Mean Weight Gain (grams) Day 21 [4]: 93 grams
Dead/Treated at 21 Days [5]: 0/3

SMILES: CC(C)(C)CC(C)(C)Nc1nc(NC(C)(C)C)nc(N2CC3CCC(CC3)C2)n1 [2-(tert-butylamino)-4-(1,1,3,3-tetramethylbutylamino)-6-(3-azabicyclo[3.2.2]nonyl)-s-triazine]
inhibition in vivo at 50 mg/kg [6]: 42%
inhibition in vivo at 50 mg/kg [7]: 14%
Mean Weight Gain (grams) Day 14 [3]: 85 grams
Mean Weight Gain (grams) Day 21 [4]: 87 grams
Dead/Treated at 21 Days [5]: 3/18

SMILES: CCCCNc1nc(N2CC3CCC(CC3)C2)nc(N2CC3CCC(CC3)C2)n1 [3,3'-(6-butylamino-s-triazin-2,4-diyl)bis-3-azabicyclo[3.2.2]nonane]
inhibition in vivo at 50 mg/kg [6]: 46%
inhibition in vivo at 50 mg/kg [7]: 32%
Mean Weight Gain (grams) Day 14 [3]: 82 grams
Mean Weight Gain (grams) Day 21 [4]: 107 grams
Dead/Treated at 21 Days [5]: 2/12

SMILES: CC(C)(C)CC(C)(C)Nc1nc(NC(C)(C)CC(C)(C)C)nc(N2CC3CCC(CC3)C2)n1 [3-[4,6-bis(1,1,3,3-tetramethylbutylamino)-s-triazin-2-yl]-3-azabicyclo[3.2.2]nonane]
inhibition in vivo at 50 mg/kg [6]: 59%
inhibition in vivo at 50 mg/kg [7]: 23%
Mean Weight Gain (grams) Day 14 [3]: 76 grams
Mean Weight Gain (grams) Day 21 [4]: 67 grams
Dead/Treated at 21 Days [5]: 2/18

SMILES: CC(C)(C)Nc1nc(NC(C)(C)C)nc(N2CC3CCC(CC3)C2)n1 [3-[4,6-bis(tert-butylamino)-s-triazin-2-yl]-3-azabicyclo[3.2.2]nonane]
inhibition in vivo at 50 mg/kg [6]: 61%
inhibition in vivo at 50 mg/kg [7]: 22%
Mean Weight Gain (grams) Day 14 [3]: 87 grams
Mean Weight Gain (grams) Day 21 [4]: 69 grams
Dead/Treated at 21 Days [5]: 1/9

SMILES: CC(C)(C)CC(C)(C)Nc1nc(NC(C)(C)C(C)(C)C)nc(N2CC3CCC(CC3)C2)n1 [3-[4-(1,1,3,3-tetramethylbutylamino)-6-[(1,1,2,2-tetramethylpropyl)amino]-s-triazin-2-yl]-3-azabicyclo[3.2.2]nonane]
inhibition in vivo at 50 mg/kg [6]: 74%
inhibition in vivo at 50 mg/kg [7]: 42%
Mean Weight Gain (grams) Day 14 [3]: 66 grams
Mean Weight Gain (grams) Day 21 [4]: 91 grams
Dead/Treated at 21 Days [5]: 0/12

SMILES: CC(C)(C)CC(C)(C)Nc1nc(Nc2ccc(F)cc2)nc(N2CC3CCC(CC3)C2)n1 [3-[4-p-fluoroanilino-6-(1,1,3,3-tetramethylbutylamino)-s-triazin-2-yl]-3-azabicyclo[3.2.2]nonane]
inhibition in vivo at 50 mg/kg [6]: 32%
inhibition in vivo at 50 mg/kg [7]: 18%
Mean Weight Gain (grams) Day 14 [3]: 68 grams
Mean Weight Gain (grams) Day 21 [4]: 50 grams
Dead/Treated at 21 Days [5]: 1/18

SMILES: CC(C)(C)C(C)(C)Nc1nc(NC(C)(C)C(C)(C)C)nc(N2CC3CCC(CC3)C2)n1 [3-{4,6-bis[(1,1,2,2-tetramethylpropyl)amino]-s-triazin-2-yl}-3-azabicyclo[3.2.2]nonane]
inhibition in vivo at 25 mg/kg [6]: 42%
inhibition in vivo at 50 mg/kg [6]: 58%
inhibition in vivo at 100 mg/kg [6]: 74%
inhibition in vivo at 25 mg/kg [7]: 24%
inhibition in vivo at 50 mg/kg [7]: 34%
inhibition in vivo at 100 mg/kg [7]: 41%
% Inhibition of Control Grade (secondary lesion) Day 14 [8]: 44%
Mean Weight Gain (grams) Day 14 [8]: 74 grams
% Inhibition of Control Grade (secondary lesion) Day 21 [9]: 12%
Mean Weight Gain (grams) Day 21 [9]: 70 grams
Dead/Treated at 21 Days (oral 25 mg./kg. once daily days 0-13): 1/18
% Inhibition of Control Grade (secondary lesion) Day 14 [3]: 48%
Mean Weight Gain (grams) Day 14 [3]: 56 grams
% Inhibition of Control Grade (secondary lesion) Day 21 [4]: 20%
Mean Weight Gain (grams) Day 21 [4]: 58 grams
Dead/Treated at 21 Days [5]: 0/36
% Inhibition of Control Grade (secondary lesion) Day 14 [10]: 69%
Mean Weight Gain (grams) Day 14 [10]: 73 grams
% Inhibition of Control Grade (secondary lesion) Day 21 [11]: 45%
Mean Weight Gain (grams) Day 21 [11]: 62 grams
Dead/Treated at 21 Days [12]: 1/18

SMILES: CC(=O)Oc1ccccc1C(=O)O [Aspirin]
inhibition in vivo at 50 mg/kg [1]: 23%
inhibition in vivo at 100 mg/kg (336 h, oral 100 mg./kg. once daily days 0-13, Day 14, read-out: % Inhibition of Swelling (primary lesion) Day 14): 36%
inhibition in vivo at 200 mg/kg (336 h, oral 200 mg./kg. once daily days 0-13, Day 14, read-out: % Inhibition of Swelling (primary lesion) Day 14): 48%
inhibition in vivo at 400 mg/kg (336 h, oral 400 mg./kg. once daily days 0-13, Day 14, read-out: % Inhibition of Swelling (primary lesion) Day 14): 73%
inhibition in vivo at 50 mg/kg [2]: 3%
inhibition in vivo at 100 mg/kg (504 h, oral 100 mg./kg. once daily days 0-13, Day 21, read-out: % Inhibition of Swelling (primary lesion) Day 21): 13%
inhibition in vivo at 200 mg/kg (504 h, oral 200 mg./kg. once daily days 0-13, Day 21, read-out: % Inhibition of Swelling (primary lesion) Day 21): 27%
inhibition in vivo at 400 mg/kg (504 h, oral 400 mg./kg. once daily days 0-13, Day 21, read-out: % Inhibition of Swelling (primary lesion) Day 21): 48%
% Inhibition of Control Grade (secondary lesion) Day 14 [3]: 12%
Mean Weight Gain (grams) Day 14 [3]: 56 grams
% Inhibition of Control Grade (secondary lesion) Day 21 [4]: 9%
Mean Weight Gain (grams) Day 21 [4]: 44 grams
Dead/Treated at 21 Days [5]: 2/21
% Inhibition of Control Grade (secondary lesion) Day 14 [10]: 19%
Mean Weight Gain (grams) Day 14 [10]: 48 grams
% Inhibition of Control Grade (secondary lesion) Day 21 [11]: 8%
Mean Weight Gain (grams) Day 21 [11]: 53 grams
Dead/Treated at 21 Days [12]: 18/63
% Inhibition of Control Grade (secondary lesion) Day 14 [13]: 26%
Mean Weight Gain (grams) Day 14 [13]: 40 grams
% Inhibition of Control Grade (secondary lesion) Day 21 [14]: 17%
Mean Weight Gain (grams) Day 21 [14]: 44 grams
Dead/Treated at 21 Days (oral 200 mg./kg. once daily days 0-13): 10/66
% Inhibition of Control Grade (secondary lesion) Day 14 [15]: 58%
Mean Weight Gain (grams) Day 14 [15]: 41 grams
% Inhibition of Control Grade (secondary lesion) Day 21 [16]: 45%
Mean Weight Gain (grams) Day 21 [16]: 55 grams
Dead/Treated at 21 Days (oral 400 mg./kg. once daily days 0-13): 18/57

Mean Weight Gain (grams) Day 14 [3]: 94 grams
Mean Weight Gain (grams) Day 21 [4]: 89 grams
Dead/Treated at 21 Days [5]: 1/12
SMILES: CC(C)(C)C(C)(C)Nc1nc(NC23CC4CC(CC(C4)C2)C3)nc(NC(C)(C)C(C)(C)C)n1 [N^2-1-adamantyl-N^4,N^6-bis(1,1,2,2-tetramethylpropyl)melamine]
inhibition in vivo at 50 mg/kg [1]: 47%
inhibition in vivo at 50 mg/kg [2]: 17%

Mean Weight Gain (grams) Day 14 [3]: 148 grams
Mean Weight Gain (grams) Day 21 [4]: 181 grams
Dead/Treated at 21 Days [5]: 1/3
SMILES: CC(C)(C)C(C)(C)Nc1nc(NC2C3CC4CC(C3)CC2C4)nc(NC(C)(C)C(C)(C)C)n1 (stereo not shown) [N^2-2-adamantyl-N^4,N^6-bis(1,1,2,2-tetramethylpropyl)melamine]
inhibition in vivo at 50 mg/kg [1]: 79%
inhibition in vivo at 50 mg/kg [2]: 83%
